Data from patent US10597388B2, “Pyridazinone herbicides” (FMC CORPORATION, priority 2014, dated 2020).

Experiments:
Test in all cases: Test D controlled growth environment herbicide test, pre- and postemergence
Assay type in all cases: in vivo
[1] = system: field poppy (Papaver rhoeas)
Summary of the method: (§1)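 Rating is visual, 0–100 scale (100 = complete control), made against untreated plants 14–21 d after treatment in controlled growth conditions. Postemergence sprays went onto 1- to 4-leaf plants in peat medium; preemergence sprays onto silt loam after sowing; formulation included a surfactant.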

[2] = system: wheat, spring (spring wheat, Triticum aestivum)
Summary of the method: as §1

[3] = system: barley, winter (winter barley, Hordeum vulgare)
Summary of the method: as §1

[4] = system: lambsquarters (Chenopodium album)
Summary of the method: as §1

[5] = system: radish, wild (wild radish, Raphanus raphanistrum)
Summary of the method: as §1

[6] = system: field violet (Viola arvensis)
Summary of the method: as §1

[7] = system: chickweed (common chickweed, Stellaria media)
Summary of the method: as §1

[8] = system: bluegrass (annual bluegrass, Poa annua)
Summary of the method: as §1

[9] = system: barley, spring (spring barley, Hordeum vulgare)
Summary of the method: as §1

[10] = system: canarygrass (Phalaris minor)
Summary of the method: as §1

[11] = system: oat, wild (wild oat, Avena fatua)
Summary of the method: as §1

[12] = system: wheat, winter (winter wheat, Triticum aestivum)
Summary of the method: as §1

[13] = Postemergence, 31 g ai/ha, scale 0 to 100 (0 no effect, 100 complete control)
[14] = Postemergence, 125 g ai/ha, visual rating on scale 0 (no effect) to 100 (complete control), 14 to 21 d
[15] = Postemergence, 250 g ai/ha, scale 0 to 100 (0 no effect, 100 complete control)
[16] = Preemergence, 62 g ai/ha, scale 0 to 100 (0 no effect, 100 complete control)
[17] = Preemergence, 125 g ai/ha, scale 0 to 100 (0 no effect, 100 complete control)
[18] = Preemergence, 250 g ai/ha, scale 0 to 100, 0 no effect, 100 complete control
[19] = postemergence, 62 g ai/ha, scale 0 to 100, 0 no effect, 100 complete control

CCc1sc2c(C)cc(C)cc2c1-c1c(O)c(C)nn(C)c1=O [Compound 57]
Field Poppy plant response rating [1, 13]: 100 | Plant response rating, Field Poppy [1, 14]: 100 | Plant response rating, Field Poppy [1, 15]: 100 | Plant response rating (scale of 0 to 100), Field Poppy ([1]; Preemergence, 31 g ai/ha): 100 | Plant response rating, Field Poppy [1, 16]: 100 | Plant response rating, Field Poppy [1, 17]: 100 | Plant response rating, Field Poppy [1, 18]: 100 | Plant response rating, Field Poppy [1, 19]: 100 | Wheat, Spring plant response rating [2, 13]: 0 | Plant response rating, Wheat, Spring [2, 14]: 10 | Plant response rating, Wheat, Spring [2, 15]: 10 | Plant response rating (scale of 0 to 100), Wheat, Spring ([2]; Preemergence, 31 g ai/ha): 5 | Plant response rating, Wheat, Spring [2, 16]: 5 | Plant response rating, Wheat, Spring [2, 17]: 5 | Plant response rating, Wheat, Spring [2, 18]: 10 | Plant response rating, Wheat, Spring [2, 19]: 10 | Barley, Winter plant response rating [3, 13]: 20 | Plant response rating, Barley, Winter [3, 14]: 25 | Plant response rating, Barley, Winter [3, 15]: 25 | Plant response rating (scale of 0 to 100), Barley, Winter ([3]; Preemergence, 31 g ai/ha): 0 | Plant response rating, Barley, Winter [3, 16]: 0 | Plant response rating, Barley, Winter [3, 17]: 5 | Plant response rating, Barley, Winter [3, 18]: 5 | Plant response rating, Barley, Winter [3, 19]: 30 | Lambsquarters plant response rating [4, 13]: 75 | Plant response rating, Lambsquarters [4, 14]: 75 | Plant response rating, Lambsquarters [4, 15]: 85 | Plant response rating (scale of 0 to 100), Lambsquarters ([4]; Preemergence, 31 g ai/ha): 100 | Plant response rating, Lambsquarters [4, 16]: 100 | Plant response rating, Lambsquarters [4, 17]: 100 | Plant response rating, Lambsquarters [4, 18]: 100 | Plant response rating, Lambsquarters [4, 19]: 75 | Radish, Wild plant response rating [5, 13]: 40 | Plant response rating, Radish, Wild [5, 14]: 100 | Plant response rating, Radish, Wild [5, 15]: 90 | Plant response rating (scale of 0 to 100), Radish, Wild ([5]; Preemergence, 31 g ai/ha): 0 | Plant response rating, Radish, Wild [5, 16]: 10 | Plant response rating, Radish, Wild [5, 17]: 25 | Plant response rating, Radish, Wild [5, 18]: 100 | Plant response rating, Radish, Wild [5, 19]: 100 | Field Violet plant response rating [6, 13]: 80 | Plant response rating, Field Violet [6, 14]: 75 | Plant response rating, Field Violet [6, 15]: 85 | Plant response rating (scale of 0 to 100), Field Violet ([6]; Preemergence, 31 g ai/ha): 95 | Plant response rating, Field Violet [6, 16]: 100 | Plant response rating, Field Violet [6, 17]: 100 | Plant response rating, Field Violet [6, 18]: 100 | Plant response rating, Field Violet [6, 19]: 70 | Chickweed plant response rating [7, 13]: 100 | Plant response rating, Chickweed [7, 14]: 100 | Plant response rating, Chickweed [7, 15]: 100 | Plant response rating (scale of 0 to 100), Chickweed ([7]; Preemergence, 31 g ai/ha): 100 | Plant response rating, Chickweed [7, 16]: 100 | Plant response rating, Chickweed [7, 17]: 100 | Plant response rating, Chickweed [7, 18]: 100 | Plant response rating, Chickweed [7, 19]: 100 | Bluegrass plant response rating [8, 13]: 5 | Plant response rating, Bluegrass [8, 14]: 15 | Plant response rating, Bluegrass [8, 15]: 15 | Plant response rating (scale of 0 to 100), Bluegrass ([8]; Preemergence, 31 g ai/ha): 0 | Plant response rating, Bluegrass [8, 16]: 20 | Plant response rating, Bluegrass [8, 17]: 25 | Plant response rating, Bluegrass [8, 18]: 65 | Plant response rating, Bluegrass [8, 19]: 15 | Barley, Spring plant response rating [9, 13]: 10 | Plant response rating, Barley, Spring [9, 14]: 10 | Plant response rating, Barley, Spring [9, 15]: 10 | Plant response rating (scale of 0 to 100), Barley, Spring ([9]; Preemergence, 31 g ai/ha): 5 | Plant response rating, Barley, Spring [9, 16]: 10 | Plant response rating, Barley, Spring [9, 17]: 10 | Plant response rating, Barley, Spring [9, 18]: 10 | Plant response rating, Barley, Spring [9, 19]: 10 | Canarygrass plant response rating [10, 13]: 5 | Plant response rating, Canarygrass [10, 14]: 15 | Plant response rating, Canarygrass [10, 15]: 25 | Plant response rating (scale of 0 to 100), Canarygrass ([10]; Preemergence, 31 g ai/ha): 0 | Plant response rating, Canarygrass [10, 16]: 10 | Plant response rating, Canarygrass [10, 17]: 55 | Plant response rating, Canarygrass [10, 18]: 65 | Plant response rating, Canarygrass [10, 19]: 5 | Oat, Wild plant response rating [11, 13]: 15 | Plant response rating, Oat, Wild [11, 14]: 65 | Plant response rating, Oat, Wild [11, 15]: 85 | Plant response rating (scale of 0 to 100), Oat, Wild ([11]; Preemergence, 31 g ai/ha): 15 | Plant response rating, Oat, Wild [11, 16]: 30 | Plant response rating, Oat, Wild [11, 17]: 50 | Plant response rating, Oat, Wild [11, 18]: 60 | Plant response rating, Oat, Wild [11, 19]: 25 | Wheat, Winter plant response rating [12, 13]: 5 | Plant response rating, Wheat, Winter [12, 14]: 10 | Plant response rating, Wheat, Winter [12, 15]: 15 | Plant response rating (scale of 0 to 100), Wheat, Winter ([12]; Preemergence, 31 g ai/ha): 5 | Plant response rating, Wheat, Winter [12, 16]: 5 | Plant response rating, Wheat, Winter [12, 17]: 5 | Plant response rating, Wheat, Winter [12, 18]: 10 | Plant response rating, Wheat, Winter [12, 19]: 10
